“Also recorded” adds a separate entry of the source. Like-named read-outs stand apart in the source and are kept apart here.
How the values were obtained:
[1] = test system: Balb/C mice; assay: Cellular immune responses after HBsAg DNA vaccine (assay not specified); format: in vivo; conditions: as stated in Example 6
Source text: This experiment includes a plasmid that expresses HBsAg from the keratin 14 promoter. This was used to try and alter the expression of the antigen in different cell types and see if this affects the immune response. Mice were immunized twice.

[2] = test system: Balb/C mice; assay: ELISA for subclass of HBsAg specific antibody (IgG1/IgG2a); format: in vivo; conditions: Example 6; serum samples from different experiments; FIG. 15
[3] = test system: Balb/C mice; assay: Resiquimod adjuvant test: cellular immune responses (CD8 ELISPOT) after HBsAg DNA vaccine; format: in vivo; conditions: Example 16, topical
Method: Resiquimod is delivered topically to the abdominal skin of Balb/c mice on either day −2, −1, 0, 1, 2 or 3 relative to immunization on day 0. Immunization utilizes a DNA vaccine that expresses the Hepatitis B surface antigen so that cellular and antibody responses found after treatment with Resiquimod can be evaluated and compared to a wealth of historical data. The formulation consists of either a 0.05% cream, or a DMSO solution (approximately 5 mg/ml). Ideally both types of formula are tested. One half of the mice are sacrificed 7 days after immunization to measure cellular immune responses (CD8 ELISPOT). The remaining mice are bled 28 days after immunization, boosted with the same schedule as the priming immunization and then sacrificed 2 weeks later to test for antibody and cellular responses. Serum is used to test for antibody titer and to evaluation subclass distribution of IgG antibodies indicating the bias of the immune response.
For immunization DNA vaccine plasmids with a well-known immune response are employed. Plasmid WRG7128 is a likely choice which expresses the Hepatitis B surface antigen (HBsAg) using the HCMV promoter/enhancer and generates a cellular and antibody response.
Resiquimod is formulated as either a 0.05% cream, or a 5 mg/ml solution in DMSO. To apply the cream, it is rubbed onto the abdomens of mice using a cotton swab. […]

[4] = test system: Balb/C mice; format: in vivo; conditions: for g-IFN secretion: first experiment
Method: Two further experiments were performed to assess the efficacy of imiquimod (Aldara cream) as an adjuvant for particle-mediated immunization with DNA (PMD). Both experiments used a plasmid expressing HBV sAg and cAg as a test vaccine. […] Readouts included antibody titers and cytokine ELISPOTs to the two antigens.
Groups of 5-10 Balb/c mice were vaccinated on the shaved abdomen with one shot each on day 0 (prime only) or days 0 and 28 (prime and boost). PMID was administered using an ND5.5 device with a payload of 1 mg Au and a 35 bar cylinder. […] In experiment one, a small, unmnetered amount of Aldara was delivered at the indicated times using a cotton swab to rub the cream in. […] The control cream was an over the counter hand cream which contained many of the same ingredients as the Aldara base cream.
Mice were bled retro-orbitally at 4 weeks for prime/boost groups. Blood was collected by intracardiac puncture, and spleens were removed for cellular assays at sacrifice at either week 2 (prime only) or week 6 (boost+2 weeks). Sera were analyzed for anti-sAg and anti-cAg antibodies using in-house ELISAs. Spleen cells from individual mice were stimulated with protein or peptide for g-IFN and IL-4 ELISPOT assays. Three sets of antigen were used: 1) intact cAg from Biodesign; 2) a library of overlapping sAg peptides (15 mers offset by 3 amino acids synthesized by Chiron); and 3) an immunodominant peptide from sAg (amino acids 28-39) known to bind the MHC class I molecule Ld. Specific spot-forming cells were calculated by subtracting the number of spots generated with cells cultured in medium alone.

[5] = test system: Balb/C mice; assay: CD8 IFN-g ELISA of spleen cells after HBsAg DNA vaccine; format: in vivo; conditions: Example 2; prime and boost
Source text: (§1) For immunization with the Hepatitis B surface antigen (HBsAg) a plasmid containing the HCMV promoter/enhancer was used to drive expression of the HBsAg. For one experiment we also employed a plasmid in which the keratin 14 promoter was used instead of the HCMV promoter. This promoter is expected to have a more restricted pattern of expression and be expressed only in the skin unlike the HCMV promoter that is expressed in many cell types.
(§2) The cream is a 5% solution.
Mice were immunized with a DNA vaccine containing a HBsAg expressing plasmid using either a high dose (1 ug) or low dose (50 ng) of vaccine. […] One group was also treated for three days (day 0, 1 and 2). […] Results shown in FIG. 1 are from the CD8 IFN-g ELISA. […] The values are the means from 4 individual mice.

[6] = test system: Balb/C mice; format: in vivo; conditions: Example 7; first experiment, prime only
[7] = test system: Balb/C mice; assay: IFN-g ELISPOT of spleen cells after HBsAg DNA vaccine; conditions: Example 2; prime and boost
[8] = test system: Balb/C mice; assay: Anti-sAg and anti-cAg antibody ELISAs after PMID with HBV sAg/cAg plasmid; format: in vivo; conditions: Example 7
[9] = test system: Balb/C mice; assay: Serum antibody ELISA (HBsAg) after HBsAg DNA vaccine; format: in vivo; conditions: Example 2; prime and boost, HBsAg plasmid with HCMV promoter; FIG. 3
Method: as §1, §2
Serum samples were assayed for antibodies using an BLISA assay. Falcon Pro Bind microtiter plates were coated overnight at 4° C. with antigen in PBS (phosphate buffered saline, BioWhittaker). For HBsAg BLISA the antigen was purified HBsAg (BioDesign) at 0.1 ug per well, and for HSV ELISAs the antigen was 5 ug per well of an infected cell extract (Advanced Biotechnolgies Incorporated). […]
Plates were washed 3× and a biotinylated goat anti-mouse antibody (Southern Biotechnology) diluted 1:8000 in dilution buffer was added to the plate and incubated for 1 hr at RT. […] Optical density was read at 450 nm. Endpoint titers for HBsAg were calculated by comparison of the samples with a standard of known titer.

For `CCCCC[C@H](O)/C=C/[C@H]1[C@H](O)CC(=O)[C@@H]1C/C=C\CCCC(=O)O` [PGE2], which cellular responses [1] is on record?
Its cellular responses is “can enhance cellular responses”.

And the “ratio of IgG1/IgG2a of HBsAg specific antibody” value [2]?
Its value is “does not have the same effect overall”.

What does the source list for `CCOCc1nc2c(N)nc3ccccc3c2n1CC(C)(C)O` [Resiquimod, 4-amino-2-ethoxymethyl-alpha,alpha-dimethyl-1H-imidazo [4,5-c]quinoline-1-ethanol]?
cellular immune response [3]: boost in the cellular immune response; immune responses to the DNA vaccines ([3]; before or after immunization): enhances immune responses

How did the “g-IFN ELISPOT response to class I-restricted peptide (CD8+ cells)” value ([4]; Example 7, first experiment, compared with sAg peptide library response) turn out when `CC(C)Cn1cnc2c(N)nc3ccccc3c21` [imiquimod, 1-(2-methyl-propyl)-1H-imidazo[4,5-c]quinolin-4-amine] was run?
Its value is “comaparable responses were seen”.

What about the “optimal time point for augmenting g-IFN-secreting cells” value ([4]; Example 7, time after PMID) of the same molecule?
Its value is “about a day and upto 7 days after PMID”.

What about the g-IFN secretion ([4]; highest dose of DNA, delivered right before or right after) of the same molecule?
The g-IFN secretion was “slightly inhibitory”.

What about the g-IFN secretion ([4]; highest dose of DNA, given 24 hours after) of the same molecule?
Its g-IFN secretion is “augments PMID”.

What about the g-IFN secretion ([4]; low doses of DNA, administration 24 hours post PMID) of the same molecule?
The g-IFN secretion was “most effective”.

And the g-IFN secretion ([4]; low doses of HBV-encoding DNA, all three time points)?
Its g-IFN secretion is “enhances g-IFN secretion”.

What about the “cellular response (IFN-g ELISA)” value [5] of the same molecule?
Its value is “enhanced the responses”.

And the “IL-4 ELISPOTs / IL-4 secretion” value [6]?
Its value is “little effect; also recorded: no effect”.

And the “cellular response (ELISPOTs)” value [7]?
Its value is “enhanced the responses”.

And the “antibody titers / antibody responses to HBV sAg and cAg” value [8]?
The value was “little effect; also recorded: did not enhance antibody responses”.

And the antibody levels [9]?
Its antibody levels is “strong reduction in antibody levels”.

Reference: patent publication US20050266024A1 (priority 2002, published 2005)
